This note sets out measurements from PubChem BioAssay (NCI).

Test systems include UO-31 renal; PC-3 prostate; SN12C renal; SK-MEL-2 melanoma; OVCAR-4 ovarian; OVCAR-8 ovarian; HS 578T breast; U251 CNS; BT-549 breast; UACC-257 melanoma.
Common to all, as to assay: inhibition of tumour cell growth, NCI panel, 48 h

SMILES strings stand for the structures.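 In this assay, cells in 96-well plates receive the compound at five concentrations for 48 hours. Endpoints are linearly interpolated between the surrounding concentrations. Here, GI50 denotes the concentration required for 50% inhibition of growth. TGI: concentration producing complete growth inhibition.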

For the compound `CNC(=O)c1c(F)cccc1Nc1nc(Nc2cc3c(cc2OC)CCN3C(=O)CN(C)C)nc2[nH]ccc12`, the GI50 in the experiment with UO-31 renal was 3.85 µM; in the experiment on PC-3 prostate, 6.25 µM; with SN12C renal it was 3.88 µM; with SK-MEL-2 melanoma, 4.87 µM; in the experiment with OVCAR-4 ovarian, 1.87 µM; in the experiment with OVCAR-8 ovarian, 2.79 µM. For the same compound, the GI50 in the experiment with HS 578T breast was 17.8 µM; in the experiment with U251 CNS it was 2.39 µM; in the experiment with BT-549 breast it was 19.8 µM. The TGI in the experiment on UO-31 renal stood at 12.2 µM; with PC-3 prostate, 39.9 µM; in the experiment with SN12C renal it was 9.81 µM; in the experiment with SK-MEL-2 melanoma, 19.8 µM; in the experiment with OVCAR-4 ovarian it was 3.99 µM; in the experiment with OVCAR-8 ovarian, 8.5 µM. For the same compound, the TGI was found to be 46.8 µM with HS 578T breast, 6.61 µM in the experiment with U251 CNS and 48.2 µM with BT-549 breast.

On to `CCC(C)C1=C(O)[N+]2([O-])Oc3ccc(C4=C(O)C(=O)C(c5ccc(O)cc5)=C(O)C4=O)cc3OC2(C(C)CC)C(=O)N1O` (centres undefined), for which the GI50 is 22.2 µM with UO-31 renal; 6.14 µM in the experiment with PC-3 prostate; more than 100 µM in the experiment on OVCAR-4 ovarian; 6.34 µM with OVCAR-8 ovarian; 11.5 µM with UACC-257 melanoma; 7.24 µM in the experiment on HS 578T breast. Further, the results for the GI50 with U251 CNS and in the experiment with BT-549 breast were 6.25 µM and 8.74 µM, respectively. For the same compound, the TGI in the experiment with UO-31 renal, with PC-3 prostate, in the experiment on OVCAR-4 ovarian, in the experiment on OVCAR-8 ovarian, with UACC-257 melanoma and in the experiment with HS 578T breast was more than 100 µM in each case. The TGI with U251 CNS and in the experiment on BT-549 breast was more than 100 µM in each case.

Take `Clc1ccc2c(c1)N(C1CCCN(Cc3ccccc3)C1)c1ccccc1S2` (centres undefined): the GI50 with UO-31 renal is 3.12 µM; with PC-3 prostate it was 4.4 µM; with SN12C renal, 5.79 µM; in the experiment with OVCAR-4 ovarian, 18 µM; with OVCAR-8 ovarian it was 6.36 µM; in the experiment on UACC-257 melanoma, 18.3 µM. Further, the GI50 with HS 578T breast was 2.12 µM; in the experiment on U251 CNS, 4.31 µM; in the experiment with BT-549 breast it was 7.39 µM. The TGI in the experiment on UO-31 renal, with PC-3 prostate, in the experiment with SN12C renal, with OVCAR-4 ovarian, in the experiment on OVCAR-8 ovarian and with UACC-257 melanoma was more than 100 µM in each case. Besides, the TGI is 6.07 µM in the experiment on HS 578T breast, more than 100 µM with U251 CNS and 77 µM in the experiment on BT-549 breast.

For the compound `COc1ccc(S(=O)(=O)Nc2c(/C=C\c3cc(OC)c(OC)c(OC)c3)ccc(OC)c2O)cc1`, the GI50 was 0.0619 µM with UO-31 renal; 0.0408 µM with PC-3 prostate; 0.0869 µM in the experiment with SN12C renal; 0.0437 µM with SK-MEL-2 melanoma; 0.0763 µM with OVCAR-4 ovarian; 0.0466 µM with OVCAR-8 ovarian. The GI50 is 0.047 µM in the experiment with HS 578T breast, 0.0374 µM in the experiment on U251 CNS and 0.0501 µM in the experiment on BT-549 breast. For the same compound, the TGI in the experiment with UO-31 renal is 62.4 µM; in the experiment on PC-3 prostate, more than 100 µM; in the experiment on SN12C renal it was more than 100 µM; in the experiment with SK-MEL-2 melanoma it was 37.1 µM; with OVCAR-4 ovarian, more than 100 µM; with OVCAR-8 ovarian, more than 100 µM. In addition, the TGI in the experiment on HS 578T breast is more than 100 µM; in the experiment on U251 CNS, more than 100 µM; in the experiment on BT-549 breast, 47 µM.

In the case of `CCCc1nc(Cl)c(Cl)c(Cl)n1`, the TGI in the experiment with UO-31 renal was 5.61 µM; in the experiment on PC-3 prostate it was more than 100 µM; with SN12C renal, more than 31.6 µM; in the experiment with OVCAR-4 ovarian, 33.4 µM; in the experiment on OVCAR-8 ovarian, 51 µM; in the experiment on UACC-257 melanoma it was more than 100 µM. Further, the figures for the TGI in the experiment with HS 578T breast, in the experiment on U251 CNS and in the experiment on BT-549 breast were 44.3 µM, 30.1 µM and 77.9 µM, respectively.

Regarding `Cc1c2ccncc2c(C)c2c1sc1ccccc12`, the TGI in the experiment with PC-3 prostate was determined as 26.4 µM; with SN12C renal, 23.8 µM; in the experiment on SK-MEL-2 melanoma, 50.4 µM; in the experiment with OVCAR-4 ovarian, 37.8 µM; in the experiment with OVCAR-8 ovarian, 25.1 µM; in the experiment on UACC-257 melanoma, 47.2 µM. The TGI in the experiment on HS 578T breast is 39.5 µM; in the experiment with U251 CNS, 23.8 µM; with BT-549 breast it was 35.9 µM.

As for `COc1cc2c(c(OC)c1OC)-c1ccc(SC)c(=O)cc1[C@@H](NC(=O)C(F)(F)F)CC2`, the TGI was more than 95.7 µM in the experiment with UO-31 renal; more than 100 µM in the experiment with PC-3 prostate; 16.5 µM with SN12C renal; more than 100 µM in the experiment on OVCAR-4 ovarian; more than 72.6 µM in the experiment on OVCAR-8 ovarian; more than 4.64 µM in the experiment on UACC-257 melanoma. For the same compound, the TGI was 71.1 µM in the experiment with HS 578T breast, 56.3 µM in the experiment with U251 CNS and more than 100 µM in the experiment on BT-549 breast.

Take `O=C(Nc1cc(Cl)ccc1O)c1ccccc1Nc1ccnc(C(F)(F)F)c1`: the GI50 in the experiment on PC-3 prostate was 2.84 µM; in the experiment on SN12C renal, 2.84 µM; in the experiment with OVCAR-4 ovarian, 2.29 µM; in the experiment on OVCAR-8 ovarian, 3.43 µM; with UACC-257 melanoma it was 2.85 µM; in the experiment with HS 578T breast, 2.42 µM. The results for the GI50 with U251 CNS and in the experiment with BT-549 breast were 4.91 µM and 2.46 µM, respectively. In addition, the TGI in the experiment on PC-3 prostate is more than 100 µM; with SN12C renal it was 10.7 µM; with OVCAR-4 ovarian it was 13.2 µM; in the experiment on OVCAR-8 ovarian, 16.3 µM; in the experiment on UACC-257 melanoma it was 8.5 µM; in the experiment on HS 578T breast it was 8.54 µM. The TGI in the experiment with U251 CNS was more than 100 µM; with BT-549 breast, 7.95 µM.

For `C#CC1(O)C(COP(=O)(O)OCC2OC(n3cc(F)c(=O)[nH]c3=O)CC2O)OC(n2ccc(N)nc2=O)C1O` (centres undefined), the GI50 is less than 0.01 µM in the experiment on UO-31 renal; less than 0.0305 µM in the experiment with PC-3 prostate; less than 0.01 µM in the experiment with SN12C renal; 0.0552 µM in the experiment on SK-MEL-2 melanoma; less than 0.01 µM with OVCAR-8 ovarian; 0.114 µM in the experiment with UACC-257 melanoma. The GI50 is less than 0.0265 µM with HS 578T breast, less than 0.0273 µM in the experiment with U251 CNS and less than 0.019 µM in the experiment on BT-549 breast. Moreover, the TGI with UO-31 renal is more than 100 µM; in the experiment with PC-3 prostate, more than 69 µM; in the experiment with SK-MEL-2 melanoma, 5.78 µM; in the experiment on UACC-257 melanoma, more than 23.1 µM; in the experiment on HS 578T breast it was 8.44 µM; in the experiment on U251 CNS it was more than 100 µM. In the experiment with BT-549 breast, this compound displayed a TGI of 2.52 µM.
